Data on 8 molecules can be found in BindingDB's records for doi:10.1016/j.bmc.2012.05.068 (Duquesne University, 2012).

Assay [1] concerns the target T1, Bifunctional dihydrofolate reductase-thymidylate synthase (Toxoplasma gondii, UniProt Q07422).
T1 sequence (Q07422 whole entry): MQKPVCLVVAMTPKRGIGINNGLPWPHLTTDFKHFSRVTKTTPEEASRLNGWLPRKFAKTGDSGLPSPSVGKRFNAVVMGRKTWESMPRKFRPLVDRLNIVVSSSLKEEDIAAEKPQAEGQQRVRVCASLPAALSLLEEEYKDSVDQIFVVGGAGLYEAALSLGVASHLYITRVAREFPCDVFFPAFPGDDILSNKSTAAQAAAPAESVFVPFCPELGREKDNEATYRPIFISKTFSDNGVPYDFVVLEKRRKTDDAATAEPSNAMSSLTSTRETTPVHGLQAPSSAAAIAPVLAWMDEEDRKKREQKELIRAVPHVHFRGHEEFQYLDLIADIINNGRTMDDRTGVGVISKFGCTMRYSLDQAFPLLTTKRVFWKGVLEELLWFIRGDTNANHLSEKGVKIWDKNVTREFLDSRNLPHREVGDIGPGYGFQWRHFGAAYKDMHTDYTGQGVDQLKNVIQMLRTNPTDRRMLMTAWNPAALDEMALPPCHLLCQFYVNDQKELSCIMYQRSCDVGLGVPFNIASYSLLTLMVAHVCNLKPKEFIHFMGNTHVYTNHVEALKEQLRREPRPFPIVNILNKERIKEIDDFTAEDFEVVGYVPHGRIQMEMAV
Nature of the assay: Inhibition of Toxoplasma gondii DHFR.

Assay [2] has as its target Dihydroorotate dehydrogenase (quinone), mitochondrial (Homo sapiens, UniProt Q02127). Nature of the assay: Inhibition of human DHODH.
Assay [3] has as its target Thymidylate synthase (Homo sapiens, UniProt P04818). As to the kind of experiment: Inhibition of human thymidylate synthase.
The target of assay [4] is T1, Bifunctional dihydrofolate reductase-thymidylate synthase. Nature of the assay: Inhibition of Toxoplasma gondii thymidylate synthase.

Chain of Thymidylate synthase (P04818 whole entry): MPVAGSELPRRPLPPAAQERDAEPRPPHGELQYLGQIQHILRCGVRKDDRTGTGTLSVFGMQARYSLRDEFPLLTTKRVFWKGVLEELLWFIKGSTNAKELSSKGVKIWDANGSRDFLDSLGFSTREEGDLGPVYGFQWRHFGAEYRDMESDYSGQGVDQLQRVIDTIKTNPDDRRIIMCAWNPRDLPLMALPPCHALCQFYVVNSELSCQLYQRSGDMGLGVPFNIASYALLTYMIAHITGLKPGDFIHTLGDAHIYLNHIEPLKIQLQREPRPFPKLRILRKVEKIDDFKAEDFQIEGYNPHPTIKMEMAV
Chain of Dihydroorotate dehydrogenase (quinone), mitochondrial (Q02127 whole entry): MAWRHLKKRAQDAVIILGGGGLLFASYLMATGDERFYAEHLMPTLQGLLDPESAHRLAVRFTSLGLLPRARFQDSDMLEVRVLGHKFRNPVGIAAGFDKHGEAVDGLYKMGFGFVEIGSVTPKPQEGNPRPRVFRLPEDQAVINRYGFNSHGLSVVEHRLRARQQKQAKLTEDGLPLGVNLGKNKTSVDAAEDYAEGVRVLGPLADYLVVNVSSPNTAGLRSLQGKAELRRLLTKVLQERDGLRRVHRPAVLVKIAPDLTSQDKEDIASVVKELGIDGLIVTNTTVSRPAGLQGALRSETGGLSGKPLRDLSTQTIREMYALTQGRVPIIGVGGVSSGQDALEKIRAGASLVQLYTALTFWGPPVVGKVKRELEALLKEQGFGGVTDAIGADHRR

One may read the IC50 as the concentration at which inhibition is half-maximal. High values mean weaker potency in that assay, low ones greater potency in that assay. Consider `Nc1nc2cc3ccccc3c-2c(Nc2ccc(Cl)cc2F)[nH]1`, for which the IC50 is greater than 16 µM in assay [1], greater than 200 µM in assay [2], greater than 13 µM in assay [3] and greater than 13 µM in assay [4].
`Nc1nc2cc3ccccc3c-2c(Nc2ccccc2)[nH]1` displayed an IC50 in assay [2] greater than 200 µM.
The same measure, in the same setting: for `Nc1nc2cc3ccccc3c-2c(Nc2cccc(F)c2)[nH]1` the value was greater than 200 µM.
With `Nc1nc2cc3ccccc3c-2c(Nc2ccc(Cl)cc2)[nH]1`, the IC50 was greater than 16 µM in assay [1], greater than 200 µM in assay [2], greater than 14 µM in assay [3] and greater than 14 µM in assay [4].
The molecule `COc1cccc(Nc2[nH]c(N)nc3cc4ccccc4c2-3)c1` came in with an IC50 in assay [2] greater than 200 µM.
For `Nc1nc2cc3ccccc3c-2c(Nc2ccc(F)c(Cl)c2)[nH]1`, the IC50 in assay [1] was greater than 16 µM; in assay [3] it was greater than 13 µM; in assay [4], greater than 13 µM.
`Nc1nc2cc3ccccc3c-2c(Nc2cccc(Br)c2)[nH]1`: the IC50 in assay [1] was greater than 14 µM; in assay [2], greater than 200 µM.
For `CC(C)c1ccc(Nc2[nH]c(N)nc3cc4ccccc4c2-3)cc1`, the results for the IC50 in assay [1], in assay [3] and in assay [4] were greater than 16 µM, greater than 14 µM and greater than 14 µM, respectively.
